Key:
[1] = tested on: vitelline capillaries of chick embryo; assay: chick embryo vitelline capillary regression assay; assay type: in vivo; details: Table II
Protocol: Using the chick embryo vitelline capillaries assay, compounds were tested for their ability to induce capillary regression. Each compound was applied in 0.1 ml of 15% Ficol 400 and PBS onto the embryo, and vascular regression was assessed after 60 minutes.
The 3-day chick embryo consists of an embryonic disc from which numerous vessels emerge and return, forming a "figure 8"-shaped structure--the embryo in the center with vascular loops extending outward over both poles. […] Following a lag period of around 15 minutes, the constriction of continuity between capillary and secondary vessels, generally on the "venous" side, was observed. Continued pulsatile blood flow progressed, resulting in a "swelling" of the blind tube, followed by a pinching off of the remaining connection and formation of an enclosed vascular sac resembling a "blood island." This process progressed until only the largest vessels remained intact.

HM = HM MTT assay; assay type: cell-based; details: Table II; read-out: HM MTT assay, Minimum Effective Concentration

Q: `CC(CCC(=O)O)[C@H]1CCC2C3C(CC[C@@]21C)[C@@]1(C)CC[C@@H](NCCCNCCCCN)CC1C[C@H]3O` (single isomer, unassigned) was tested. Which “Chick embryo diss. assay, Minimum Effective Concentration” value [1] did it give?
A: 0.01 µg

Q: And the minimal effective concentration (HM)?
A: 58.6 µg/mL
